Test results taken from publication PMC4885035, “Pathway for Biodegrading Nodularin (NOD) by Sphingopyxis sp. USTB-05” (Toxins, 2016).

Test system: crude enzymes (CEs) of Sphingopyxis sp. USTB-05
Assay type: in vitro ADME
Details: NOD 11.6 mg/L with CEs 570 mg/L protein, 30 °C, HPLC-UV 238 nm; for fate of the biodegradation product in the presence of CEs: followed to 36 h
Experimental: Bacterial cells of USTB-05 in the logarithmic growth phase of the third day were harvested by centrifugation at 8000 r/min for 20 min at room temperature. The bacterial pellet was subsequently washed three times with 50 mM phosphate buffer solution (PBS, pH 7.0). Afterwards, the cells were resuspended in 30 mL PBS, and then disrupted using an ultrasonic disruptor with an output power of 600 W for 15 min in an ice bath. […].
The total biodegradation reaction volume was 5 mL containing 570 mg/L, 380 mg/L, and 211 mg/L proteins in PBS in each 10 mL centrifuge tube, respectively. […]. The reaction was performed at 30 °C and 200 r/min. Samples of 500 μL for each were taken after 0, 3, 6, 12, 24, and 36 h, respectively, and then 5 μL of concentrated hydrochloric acid (36%, v/v) was added to stop the reaction. A control bottle was prepared in the same way without CEs. All samples were centrifuged at 13,000 r/min for 10 min and then the concentrations of residual NOD and its products in supernatants were analyzed using HPLC. All experiments were carried out in triplicate.
NOD and its enzymatic biodegradation products were firstly analyzed using a HPLC system (Shimadzu LC-10ATVP, Shimadzu Co., Ltd., Kyoto, Japan) with an ultraviolet (UV) Diode Array Detector at 238 nm using a Agilent TC-C18 column (4.6 mm × 250 mm) (Agilent Technologies Inc., 1200 series, Santa Clara, CA, USA). […]. The flow rate was 1 mL/min and the injection amount was 20 μL. The concentration of NOD was determined by calibration of peak area (at 238 nm) with that of the standard NOD. The biodegradation products that contained Adda were monitored by HPLC based on the assumption that their molar absorption coefficient at 238 nm is the same as NOD.

## CC=C(C(=O)N[C@@H](C(=O)O)[C@H](C)C(=O)N[C@@H](CCCNC(=N)N)C(=O)O)N(C)C(=O)CC[C@@H](NC(=O)[C@@H](C)[C@@H](N)/C=C/C(C)=C/[C@H](C)[C@H](Cc1ccccc1)OC)C(=O)O [product A]
  time at which the product peak appeared on HPLC during enzymatic biodegradation of NOD: 3 h
  fate of the biodegradation product in the presence of CEs: completely converted to product B

## CO[C@@H](Cc1ccccc1)[C@@H](C)/C=C(C)/C=C/[C@H](N)[C@H](C)C(=O)O [product B, (2S,3S,8S,9S)-3-amino-9-methoxy-2,6,8-trimethyl-10-phenyldeca-4(E),6(E)-dienoic acid]
  time at which the product peak appeared on HPLC during enzymatic biodegradation of NOD: 6 h
  fate of the biodegradation product in the presence of CEs: always increased over time until 36 h
